Experimental data published in patent publication US20140106387A1, “METHOD FOR CONTROLLING NAD(P)/NAD(P)H RATIO BY OXIDOREDUCTASE” (MD BIOALPHA CO., LTD., priority 2006, published 2014).

What was measured:
[1] = body weight, dietary intake, fat and tissue histology in C57BL/6 DIO mice; assay type: in vivo, mouse
Procedure: The removed tissues were cut into a proper size, fixed in 10% formalin, washed with water, and embedded in paraffin to prepare blocks, according to a conventional method. The thus-prepared blocks were sectioned into a 4 μm thickness and subjected to hematoxylin and eosin (H&E) staining for observation of general changes.
For observation of cellular microstructures, the removed tissues were sliced into a size of 1 mm^3, pre-fixed in 2.5% glutaraldehyde (0.1M PBS, pH 7.4, 4° C.) for 2 to 4 hours, washed, and post-fixed in a 1% osmium tetroxide solution for 2 hours. Then, according to a conventional method, the tissues were dehydrated with serial concentrations of ethanol and the solvent was replaced with propylene oxide. The tissues were embedded in an epoxy resin mixture, and the embedded tissues were subjected to thermal polymerization to prepare blocks. The thus-prepared blocks were sectioned into a thickness of 0.5 to 1 μm using a ultramicrotome and stained with toludine blue. Observation sites were selected under a light microscope and the tissues were ultrasectioned to a thickness of 60 to 70 nm. The ultrasectioned specimens were subjected to dual staining of uranyl acetate and lead citrate and were observed under a transmission electron microscope (H-600, Hitachi, Japan) at an accelerating voltage of 75 kV.
Cryosectioned tissues were sectioned into a thickness of 5 μm, dried in air for 1 hour and reacted in a filtered 0.5% oil red 0 solution for 20 min. The tissue sections were washed with tap water, subjected to double staining with Gill hematoxylin for 20 to 30 sec, water-washed, and observed.
Adipose tissues were sectioned into a thickness of 3 μm, deparaffinized, exposed to antigens in a citrate buffer under high pressure for 4 min and washed. The mixture was reacted in a 3% hydrogen peroxide solution for 10 min, and the reaction product was washed three times with a TBST solution for 3 min. The product was reacted with primary antibodies (guinea pig, anti-perilipin) against 200-fold diluted perilipin for 1 hour and washed with a TBST solution. Secondary antibodies (donkey anti-guinea pig, cy3-conjugated) were added and reacted with the product for 30 min. The reaction product was washed three times with a TBST solution for 3 min, mounted with Fluormount G and then observed under a fluorescence microscope.
Animals were continuously fed high-fat diet pellets for 3 to 4 weeks, thereby establishing DIO mice. Mice were raised in a breeding room with a 12 h/12 h light/dark D) cycle. Animals were divided into three groups, i.e., a group with administration of physiological saline (n=3), a group with administration of a vehicle (n=5) and a group with administration of 50 mg/kg of a candidate compound (n=7). Samples were orally administered to animals every day. On Days 7, 28 and 56, each tissue was removed, frozen in liquid nitrogen, and stored at […] for short and long periods of time.
All experimental animal procedures were performed according to a guideline of Institutional Animal Care and Use Committee, Chungnam National University School of Medicine. OLETF rats were purchased from Otsuka Research Institute. Male ob/ob and C57BL/6 mice were purchased from Jackson Laboratory. Animals were housed in a breeding room maintained at a constant temperature of […] and a 12 h/12 h light/dark (L/D) cycle. 4-week-old C57BL/6 male mice were fed ad libitum high fat diet (HFD, 24% (w/w) and 45% calories as fat, Research Diets Inc., New Brunswick, N.J. 08901, US) for 7 weeks. Mouse groups were divided into an untreated group, a vehicle-treated group (calcium silicate), a pair-fed group and a candidate compound-treated group (calcium silicate-coated […] nanoparticles). Body weight and dietary intake of animals were daily measured. Upon completion of experiments, some mice of each group were anesthetized and received MRI examinations. The remaining mice of the groups were anatomized and tissue weight thereof was measured. […]

ACC, CPT, HAD = test: enzyme assays, malonyl-CoA content and fatty acid oxidation in DIO mice; assay type: in vivo, mouse
Procedure: For Enzyme assays, cytoplasm was extracted from mouse tissues. Dicoumarol-sensitive NQO1 activity was determined by a conventional method known in the art: This method is based on an absorbance decrease at 600 nm due to bioreduction of DCPIP. Total AMPK activity was determined with a known method using synthetic “SAMS” peptides and [γ-^32P] ATP. ACC activity was determined by quantifying fixation of ^14CO2 to the acid-stable product in the presence/absence of citrate (2 mM) as an allosteric activator of ACC. CPT (carnitine palmitoyl transferase) activity was measured in L6 myoblasts and soleus muscle by a known method. HAD (3-hydroxyacyl-CoA dehydrogenase) activity was determined in L6 myoblasts and soleus muscle by monitoring conversion of acetoacetyl-CoA into L-3-hydroxybutyryl CoA and the concomitant oxidation of NADH into NAD^+. The reaction was monitored at 340 nm by a known method.
[^14C]palmitoyl-CoA (Perkin Elmer) oxidation was determined in L6 myoblasts and soleus muscle by a known method using labeled CO2 and 0.2 mL of benzethonium chloride solution.
Contents of Malonyl-CoA were determined by a known method, e.g. HPLC. Acyl-CoA esters were separated by HPLC using 0.2 M ammonium acetate-containing acetonitrile/water (1.75:98.25). Samples were washed with 20 min, and subjected to 100 min linear gradient elution from acetonitrile/water (10:90) containing 0.2 M ammonium acetate.
That is, such facts mean that chronic treatment of βL can accelerate mitochondrial oxidative phosphorylation and enhance adaptive mitochondrial biogenesis. Therefore, βL can be used as a therapeutic agent for metabolic diseases.

eNOS = test: phosphorylation of endothelial nitric oxide synthase (eNOS) in HUVEC; assay type: cell-based, human; conditions: 10 μM
Procedure: It is well-known that activation of AMPK activates NRF-1 and facilitates mitochondrial biogenesis. In addition, NO/cGMP activates PGC-1α and NRF-1 to facilitate mitochondrial biogenesis. In order to ascertain whether an NQO1 activator, which activates AMPK, is involved in production of nitric oxide (NO), a degree of phosphorylation, leading to an increase in activity of endothelial nitric oxide synthase (eNOS), was determined. […] The culture medium was replaced with a serum free EBM2 medium, and cells were treated with pyrano-1,2-naphthoquinone (10 μM) for a predetermined time. Phosphorylated eNOS was observed using Anti-[…] eNOS.

[2] = muscle of DIO mice vs control group

## CC1(C)CCC2=C(O1)c1ccccc1C(=O)C2=O [βL, 2,2-Dimethyl-3,4-dihydro-2H-benzo[h]chromene-5,6-dione]
[1]; C57BL/6 DIO mice, 56 days
  EM of liver tissues: remarkably decreased fat vacuoles and glycogen stores
  accumulated fat in the liver (oil red O staining), diminished compared to control: ≥ 90%
  visceral fat and body weight: conspicuous decreases
[1]; C57BL/6 DIO, first four weeks of 56 days
  amounts of subcutaneous, mesenteric, perirenal and gonadal fats: gradually decreased
[1]; DIO mice
  number of type 1 myofibers in the soleus muscle: increased
[1]; Day 56, 50 mg/kg daily oral
  size of adipocytes, brown adipose tissues (H&E staining, EM): remarkably decreased
  size of adipocytes, gonadal adipose tissues (perilipin staining): remarkably decreased
[1]; obese mice on high-fat diet, 50 mg/kg daily oral, 56 days
  body weight: continuous weight loss for 56 days
[1]; obese mice, 50 mg/kg daily oral, 56 days
  dietary intake: decreases in dietary intake for the first two weeks
[1]; βL-treated DIO mice and ob/ob mice
  muscle mitochondria (EM): normal morphology and increased numbers of mitochondria
ACC, CPT, HAD; [2]
  14C-palmitoyl CoA β-oxidation: significantly increased
  CPT activity: significantly increased
  HAD activity: significantly increased
ACC, CPT, HAD; βL-treated DIO mice
  ACC activity: decreased
  malonyl CoA level: decreased
eNOS
  time of maximum increase of phosphorylation of eNOS: 30 min
eNOS; 2 hours
  phosphorylation of eNOS 2 hours later: not observed
